# Values quoted from earlier work, collected in paper PMC8815272 (The Journal of Supercritical Fluids, 2022).
# Structures can show the parent of a compound that is named as a salt. Where two headings read alike, the source gives them in different places.
# Conditions: cited from earlier work
# [1] = SC-CO2, 12–27 MPa, 308.2–338.2 K
# [2] = SC-CO2, 10–30.3 MPa, 308.2–328.2 K
# [3] = SC-CO2, 9.2–24.4 MPa, 308.2–328.2 K
# [4] = SC-CO2, 12.16–35.46 MPa, 308–348 K
# [5] = SC-CO2, 9–25 MPa, 308.2–328.2 K
# [6] = SC-CO2, 10–26 MPa, 308.2–328.2 K
# [7] = SC-CO2, 12.2–35.5 MPa, 308–348 K
# [8] = SC-CO2, 12–30 MPa, 308.2–338.2 K
# [9] = SC-CO2, 12–30 MPa, 313.2–343.2 K
# [10] = SC-CO2, 18.3–33.5 MPa, 308–328 K
# [11] = SC-CO2, 15.5–30.5 MPa, 315–345 K
# [12] = SC-CO2, 12–33 MPa, 308.15–338.15 K
# [13] = SC-CO2, 12–27 MPa, 308.15–338.15 K
smiles,measurement,setting,value
Cc1ccc(C(=O)c2ccc(CC(=O)O)n2C)cc1 [Tolmetin],Crossover (MPa),"SC-CO2, 12–40 MPa, 308–338 K",16 MPa
same,Mole fraction (y),"SC-CO2, 12–40 MPa, 308–338 K",5.00 × 10^−5 to 2.59 × 10^−3
Cc1ccc(NC(=O)c2ccc(CN3CCN(C)CC3)cc2)cc1Nc1nccc(-c2cccnc2)n1 [Imatinib mesylate],Crossover (MPa),[1],18–21 MPa
same,Mole fraction (y),[1],1.0 × 10^−7 to 4.4 × 10^−6
Cn1cnc([N+](=O)[O-])c1Sc1ncnc2nc[nH]c12 [Azathioprine],Crossover (MPa),"SC-CO2, 12–27 MPa, 308–338 K",12–15 MPa
same,Mole fraction (y),"SC-CO2, 12–27 MPa, 308–338 K",0.27 × 10^−5 to 1.83 × 10^−5
CCN(CC)CCNC(=O)c1c(C)[nH]c(/C=C2\C(=O)Nc3ccc(F)cc32)c1C [Sunitinib malate],Mole fraction (y),"SC-CO2, 12–27 MPa, 308–338 K",0.5 × 10^−5 to 8.56 × 10^−5
"CC(C)N1c2ccccc2C(C)(C)C12C=Nc1c(cc(N3CCc4ccccc43)c3ccccc13)O2 (centres unmarked) [1,3-dihydro-3,3-dimethyl-1-isopropyl-6-(2,3)-(dihydroindole-1-yl)spiro[2 H-indole-2,3 − 3 H-naphtho[2,1-b][1,4]oxazine]]",Crossover (MPa),"SC-CO2, 10–26 MPa, 308–328 K",17 MPa
same,Mole fraction (y),"SC-CO2, 10–26 MPa, 308–328 K",2.2 × 10^-7 to 5.05 × 10^-6
CC1COc2c(N3CCN(C)CC3)c(F)cc3c(=O)c(C(=O)O)cn1c23 (centres unmarked) [Ofloxacin],Mole fraction (y),[2],0.4 × 10^−6 to 1.3 × 10^−6
"O=C1C=CC(=O)c2c(O)cccc21 [Juglone, 5-hydroxy-1,4-naphthoquinone]",Crossover (MPa),[3],21–22 MPa
same,Mole fraction (y),[3],2.0 × 10^−5 to 1.6 × 10^−3
CC(C(=O)O)c1cccc(Oc2ccccc2)c1 (centres unmarked) [Fenoprofen],Crossover (MPa),"SC-CO2, 12–40 MPa, 308–338 K",16 MPa
same,Mole fraction (y),"SC-CO2, 12–40 MPa, 308–338 K",2.01 × 10^−5 to 4.20 × 10^−3
CCC(C)(C)C(=O)O[C@H]1C[C@@H](C)C=C2C=C[C@H](C)[C@H](CC[C@@H]3C[C@@H](O)CC(=O)O3)[C@H]21 [Simvastatin],Crossover (MPa),[4],17 MPa
same,Mole fraction (y),[4],2 × 10^−6 to 5.35 × 10^−4
CC(C)n1c(/C=C/C(O)CC(O)CC(=O)O)c(-c2ccc(F)cc2)c2ccccc21 (centres unmarked) [Fluvastatin],Crossover (MPa),[4],17 MPa
same,Mole fraction (y),[4],5 × 10^−6 to 6 × 10^−4
"Nc1nc(N)c2nc(-c3ccccc3)c(N)nc2n1 [Triamterene, 2,4,7-Triamino-6-phenylpteridine]",Crossover (MPa),"SC-CO2, 12–27 MPa, 308–338 K",19.2–19.5 MPa
same,Mole fraction (y),"SC-CO2, 12–27 MPa, 308–338 K",0.03 × 10^−5 to 2.89 × 10^−5
"O=C(O)c1cc(-c2ccc(F)cc2F)ccc1O [Diflunisal, 5-(2,4-difluorophenyl)− 2-hydroxybenzoic acid]",Crossover (MPa),[5],15 MPa
same,Mole fraction (y),[5],0.54 × 10^-6 to 8.07 × 10^-6
"CC(C)(O)C(=O)c1ccc(OCCO)cc1 [Irgacure® 2959, 2-Hydroxy-4'-(2-hydroxyethoxy)− 2-methylpropiophenone]",Crossover (MPa),[6],14 MPa
same,Mole fraction (y),[6],5.17 × 10^−6 to 2.83 × 10^−4
CC[C@H]1OC(=O)[C@H](C)[C@@H](O[C@H]2C[C@@](C)(OC)[C@@H](O)[C@H](C)O2)[C@H](C)[C@@H](O[C@@H]2O[C@H](C)C[C@H](N(C)C)[C@H]2O)[C@](C)(O)C[C@@H](C)C(=O)[C@H](C)[C@@H](O)[C@]1(C)O [Erythromycin],Crossover (MPa),[7],16.8–17 MPa
same,Mole fraction (y),[7],4.3 × 10^−5 to 3.12 × 10^−4
CN1CCC(=C2c3ccccc3CC(=O)c3sccc32)CC1 [Ketotifen fumarate],Crossover (MPa),[8],20 MPa
same,Mole fraction (y),[8],2.11 × 10^−5 to 1.07 × 10^−3
COc1ccc2nc([S@@+]([O-])Cc3ncc(C)c(OC)c3C)[nH]c2c1 [Esomeprazole],Crossover (MPa),[1],22 MPa
same,Mole fraction (y),[1],1.11 × 10^-5 to 9.10 × 10^-4
CC(C(=O)O)c1ccc(CC2CCCC2=O)cc1 (centres unmarked) [Loxoprofen],Crossover (MPa),"SC-CO2, 12–40 MPa, 308–338 K",20 MPa
same,Mole fraction (y),"SC-CO2, 12–40 MPa, 308–338 K",1.04 × 10^−5 to 1.28 × 10^−3
CCCCc1oc2ccccc2c1C(=O)c1cc(I)c(OCCN(CC)CC)c(I)c1 [Amiodarone hydrochloride],Crossover (MPa),[9],19 MPa
same,Mole fraction (y),[9],2.510 × 10^−5 to 1.012 × 10^−3
C=CC1=C(C(=O)O)N2C(=O)[C@@H](NC(=O)/C(=N\OCC(=O)O)c3csc(N)n3)[C@H]2SC1 [Cefixime trihydrate],Mole fraction (y),[10],1.6 × 10^−7 to 3.02 × 10^−7
CC[C@H]1OC(=O)[C@H](C)[C@@H](O[C@H]2C[C@@](C)(OC)[C@@H](O)[C@H](C)O2)[C@H](C)[C@@H](O[C@@H]2O[C@H](C)C[C@H](N(C)C)[C@H]2O)[C@](C)(O)C[C@@H](C)CN(C)[C@H](C)[C@@H](O)[C@]1(C)O [Azithromycin],Crossover (MPa),[7],13.8–14 MPa
same,Mole fraction (y),[7],6.9 × 10^−5 to 2.73 × 10^−4
C[C@@H]1CC[C@H]2[C@@H](C)C(=O)O[C@@H]3O[C@@]4(C)CC[C@@H]1[C@]32OO4 [Artemisinin],Crossover (MPa),"SC-CO2, 10–25 MPa, 303–328 K",13–17 MPa
same,Mole fraction (y),"SC-CO2, 10–25 MPa, 303–328 K",10^-4 to 10^-3
C[C@]12C/C(=C/O)C(=O)C[C@@H]1CC[C@@H]1[C@@H]2CC[C@@]2(C)[C@H]1CC[C@]2(C)O [Oxymetholone],Crossover (MPa),[10],18 MPa
same,Mole fraction (y),[10],1.6 × 10^−5 to 1.49 × 10^−4
CC(C)c1c(C(=O)Nc2ccccc2)c(-c2ccccc2)c(-c2ccc(F)cc2)n1CC[C@@H](O)C[C@@H](O)CC(=O)O [Atorvastatin],Crossover (MPa),[4],17 MPa
same,Mole fraction (y),[4],1.12 × 10^−6 to 1.45 × 10^−3
CC(=O)OCC(=O)[C@H]1CC[C@H]2[C@@H]3CCC4=CC(=O)CC[C@]4(C)[C@H]3CC[C@]12C [Desoxycorticosterone acetate],Crossover (MPa),[11],24.5 MPa
same,Mole fraction (y),[11],5 × 10^−6 to 1.03 × 10^−4
C[C@@H](O[C@H]1OCCN(Cc2n[nH]c(=O)[nH]2)[C@H]1c1ccc(F)cc1)c1cc(C(F)(F)F)cc(C(F)(F)F)c1 [Aprepitant],Crossover (MPa),[12],15–18 MPa
same,Mole fraction (y),[12],4.50 × 10^−6 to 7.67 × 10^−5
CCC[C@@H]1C[C@@H](C(=O)N[C@@H]([C@H]2O[C@H](SC)[C@H](O)[C@@H](O)[C@H]2O)[C@H](C)Cl)N(C)C1 [Clindamycin],Crossover (MPa),[7],14.8–15.2 MPa
same,Mole fraction (y),[7],1.77 × 10^−4 to 1.146 × 10^−3
CC(C)c1nc(N(C)S(C)(=O)=O)nc(-c2ccc(F)cc2)c1/C=C/[C@@H](O)C[C@@H](O)CC(=O)O [Rosuvastatin],Crossover (MPa),[4],17 MPa
same,Mole fraction (y),[4],3 × 10^−6 to 2.44 × 10^−4
CS(=O)(=O)OCCCCOS(C)(=O)=O [Busulfan],Crossover (MPa),"SC-CO2, 12–40 MPa, 308–338 K",16 MPa
CN1CCC(=C2c3ccccc3C=Cc3ccccc32)CC1 [Cyproheptadine],Crossover (MPa),"SC-CO2, 16–40 MPa, 308–338 K",20 MPa
same,Mole fraction (y),"SC-CO2, 16–40 MPa, 308–338 K",3.35 × 10^−5 to 3.09 × 10^−3
CCOC(=O)N1CCC(=C2c3ccc(Cl)cc3CCc3cccnc32)CC1 [Loratadine],Crossover (MPa),[13],18–21 MPa
same,Mole fraction (y),[13],4.50 × 10^−6 to 1.30 × 10^−3
CCn1cc(C(=O)O)c(=O)c2cc(F)c(N3CCNCC3)cc21 [Norfloxacin],Mole fraction (y),[2],1.4 × 10^−6 to 24.4 × 10^−6
CC(C(=O)O)c1ccc(-c2ccccc2)c(F)c1 (centres unmarked) [Flurbiprofen],Crossover (MPa),"SC-CO2, 8–25 MPa, 303–323 K",12 MPa
same,Mole fraction (y),"SC-CO2, 8–25 MPa, 303–323 K",2.170 × 10^-5 to 19.683 × 10^-5
